This test concerns KM12 cells. In words: Proliferation of KM12 cells (CellTiter-Glo). It counts as cell-based, human. Conditions: Homo sapiens. The source says: KM12 is a human colon cancer cell line in which NTRK1 is highly expressed, and gene fusion occurs with TPM3 to form TPM3-NTRK1. • [Test method]: Promega's CellTiter-Glo® Luminescent Cell Viability Assay kit was used to evaluate the inhibitory activity of the compounds on the proliferation of KM12 cells. • [Instrument]: Spectramax M3 multifunctional microplate reader from Molecular Devices. • [Test materials]: KM12 cell line (ATCC, item number CRL-12496), 96-well transparent flat-bottomed black-walled cell culture plate (Corning, item number #3603), RPMI-1640 media (GE, cat #SH30027.01), Fetal Bovine Serum FBS (Thermo Fisher, cat #10099-141), CellTiter-Glo® Luminescent Cell Viability Assay Kit (Promega, cat #G7572), PBS (Solarbio, cat #P1020), Trypsin (Thermo Fisher, cat #25200072), DMSO (Sigma, cat #D2650). • [Experimental procedure]: When resuscitating KM12 cells, the freezing tube was quickly shaken in a 37° C. water bath to melt within 1 minute. The thawed cell suspension was mixed uniformly with RPMI1640 medium containing 10% FBS, centrifuged at 1000 rpm for 5 minutes, and the supernatant discarded. 5 mL of complete medium (RPMI1640 medium with 10% FBS) was taken to resuspend the cell pellets, charged into a cell culture flask with a bottom area of 25 cm^2, and incubated in a cell incubator at 37° C., 95% humidity and 5% CO2. Cells were allowed to passage when the cell confluence rate reached about 80%. For cell passage, the old medium was discarded, and the cells were washed twice with PBS, and 0.5 mL trypsin was added to digest the cells. Upon dispersing into single cells and exfoliating from the bottom of the cell culture flask, 4.5 mL of new complete medium was added to terminate the digestion. After pipetting the cell suspension evenly, 1/5 of the cell suspension was kept and added with 4 mL of new complete medium, and after pipetting evenly, the cell flask was placed in the cell incubator for further culturing. Cell plating was performed when the cell confluence rate reached about 80% again. For cell plating, 1/5 of the cell suspension was kept for further culturing as in the cell passage method, and the remaining 4/5 of the cell suspension was placed in a 15 mL centrifuge tube, detected for cell viability by Trypan blue exclusion method to ensure that cell viability was above 90%. A cell suspension with a density of 3.33×10^4 viable cells/mL was prepared with complete medium, and 90 μL of such cell suspension was added to a 96-well cell culture plate to obtain a cell density of 3000 viable cells/mL in the cell culture plate. A control group containing no cells, no compound and only complete medium (i.e. culture medium control) and a control group containing no compound but containing cells (i.e. cell control) were set. The cell plate was placed in a cell incubator overnight.
The 10 mM compound stock solution in DMSO was first serially diluted with DMSO at a dilution factor of 3.16 times, to obtain 9 concentrations, and the 10th concentration was set as DMSO control without compound. Then, PBS was used to dilute the DMSO solutions of compounds of different concentrations, at a dilution factor of 100 times, so that the DMSO concentration in the compound solution of each concentration was 1%. Finally, 10 μL of each of the above solutions was added to the corresponding cell culture plate, so that the initial compound concentration was 10 μM, with the remaining concentrations being successively diluted at a dilution factor of 3.16 times, and the DMSO content in the cell culture plate was 0.1%.
The cell plate was placed in a cell incubator and cultured for 72 hours. For endpoint detection, the CellTiter-Glo reagent was melted, and the cell plate was moved to room temperature to equilibrate for 30 minutes, added with 100 μL of CellTiter-Glo for each well, and shaken on an orbital shaker for 5 minutes to fully lyse the cells. […]
Background: In ATP-based viability assays light output follows the ATP content of the culture.

The mark [1] stands for this setting: KM12, 72 h, Table 1, 72 hours, read-out: KM-12, IC50.

The values below come from patent US11952364B2, “TRK inhibitors useful as anticancer drugs” (TYLIGAND BIOSCIENCE (SHANGHAI) LIMITED, priority 2018, dated 2024).

Read-outs that look alike come from different tables or passages of the source.

Consider `CC(C)Oc1ccc(C(=O)Nc2ccc(Oc3cc4cnn5c4c(c3-c3cn[nH]c3)CC5)c(F)c2)c(=O)n1-c1ccc(F)cc1` [Example 34, N-(4-((5-(1H-pyrazol-4-yl)-6,7-dihydropyrrolo[3,2,1-hi]-indazol-4-yl)oxy)-3-fluorophenyl)-1-(4-fluorophenyl)-6-isopropoxy-2-oxo-12-dihydropyrndine-3-carboxamide], for which the IC50 (KM12, Table 9, read-out: KM12 cell proliferation inhibitory activity (IC50)) was found to be 37 nM.
Regarding `O=C(Nc1cnn2ccc(N3CCC[C@@H]3c3cc(F)ccc3F)nc12)N1CC[C@H](O)C1` [LOXO-101, Larotrectinib, reference compound], the IC50 under setting [1] came out at 8.3 nM.
As to `Cc1ccc(C(=O)Nc2ccc(Oc3cc4cnn(C)c4cc3-c3cn[nH]c3)c(F)c2)c(=O)n1-c1ccc(F)cc1` [Merestinib, reference compound], the IC50 by setting is: under setting [1], 8.7 nM; (KM12, Table 1-1, separate test, read-out: KM-12, IC50) 33 nM; (KM12, Table 1-2, separate test, read-out: KM-12, IC50) 59 nM; (KM12, Table 1-3, separate test, read-out: KM-12, IC50) 27 nM.
